Experimental data taken from patent publication US20070059773A1, “Identification of therapeutic compounds” (priority 2003, published 2007).
Values after ≈ are worked out from the molar mass of the structure shown. Read-outs that look alike come from different tables or passages of the source.

Columns and labels:
[1] = biological target: T1, rat striatal A2A receptor (Rattus norvegicus, UniProt P30543); settings: for number of affinity states revealed: Tables 1 and 2; for number of affinity states revealed / effect of GTP on the high affinity states: lower pH; for high affinity states as proportion of the total number of binding sites: lower pH (5.5); for effect of GTP on the high affinity states: presence of GTP
T1 sequence (P30543 whole entry): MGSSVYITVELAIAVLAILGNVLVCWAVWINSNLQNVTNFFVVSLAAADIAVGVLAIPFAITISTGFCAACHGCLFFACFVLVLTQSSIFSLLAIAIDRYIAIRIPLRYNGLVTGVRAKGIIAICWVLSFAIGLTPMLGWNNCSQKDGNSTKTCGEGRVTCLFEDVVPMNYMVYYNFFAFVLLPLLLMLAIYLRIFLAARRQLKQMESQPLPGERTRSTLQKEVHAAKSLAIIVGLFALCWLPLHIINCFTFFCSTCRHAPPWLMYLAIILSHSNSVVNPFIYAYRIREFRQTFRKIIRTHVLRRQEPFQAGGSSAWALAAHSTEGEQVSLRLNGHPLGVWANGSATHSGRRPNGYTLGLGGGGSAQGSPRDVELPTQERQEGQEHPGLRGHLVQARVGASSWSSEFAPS

[2] = biological target: T1, rat striatal A2A receptor; test: biochemical
rat cortex A1 receptor = biological target: T2, rat cortex A1 receptor (Rattus norvegicus, UniProt P25099); test: Displacement of 3H-DPCPX from the rat cortex A1 receptor; assay type: binding
T2 construct: from tissue; host or cells: rat cortex
T2 sequence (P25099 1-326): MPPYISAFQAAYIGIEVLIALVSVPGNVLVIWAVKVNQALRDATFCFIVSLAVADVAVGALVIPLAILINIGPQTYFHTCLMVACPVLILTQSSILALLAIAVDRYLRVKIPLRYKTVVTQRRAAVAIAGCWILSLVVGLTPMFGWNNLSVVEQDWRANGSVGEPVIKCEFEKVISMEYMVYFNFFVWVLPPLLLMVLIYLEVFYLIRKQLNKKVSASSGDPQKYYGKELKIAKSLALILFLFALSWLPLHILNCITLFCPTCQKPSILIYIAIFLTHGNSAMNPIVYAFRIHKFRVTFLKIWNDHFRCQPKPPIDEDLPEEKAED

human A2A receptor = biological target: T3, human A2A receptor (Homo sapiens, UniProt P29274); test: cAMP accumulation in HEK293 cells expressing the human A2A receptor; assay type: cell-based
T3 construct: expressed in transfected cells; host or cells: HEK293
T3 sequence (P29274 whole entry): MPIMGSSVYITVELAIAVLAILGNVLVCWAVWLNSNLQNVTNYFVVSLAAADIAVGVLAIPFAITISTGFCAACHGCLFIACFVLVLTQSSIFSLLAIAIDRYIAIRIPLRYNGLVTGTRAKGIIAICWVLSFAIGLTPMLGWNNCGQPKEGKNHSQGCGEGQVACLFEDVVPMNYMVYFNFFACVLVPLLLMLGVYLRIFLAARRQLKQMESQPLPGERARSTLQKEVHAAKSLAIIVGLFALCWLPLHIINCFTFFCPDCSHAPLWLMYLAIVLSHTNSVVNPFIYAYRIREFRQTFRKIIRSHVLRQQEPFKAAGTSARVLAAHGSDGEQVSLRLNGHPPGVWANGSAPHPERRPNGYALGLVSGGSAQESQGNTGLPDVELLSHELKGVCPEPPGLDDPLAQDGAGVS
Excerpt: The human A2A receptor was expressed in HEK293 cells, and the ability of agonists to stimulate cAMP accumulation assessed in the presence of rolipram to inhibit phosphodiesterase enzymes.

[3] = system: carrageenan (CGN) induced thermal hyperalgesia; test: Carrageenan induced thermal hyperalgesia (paw withdrawal latency); assay type: in vivo; settings: 0.6 mg/kg, given with carrageenan; compared with indomethacin 3 mg/kg po
Method: Carrageenan (2%, 10 microlitres) was administered into the right hind paw. A heat source was placed close to the treated and untreated hind paws, and the difference in the paw withdrawal latencies is shown. 2-methoxyadenosine was administered at the same time as carrageenan.

[4] = Blood pressure and heart rate by implanted radiotelemetry; assay type: in vivo; settings: 0.624 mg/kg p.o., rat
Method: An implantable radiotelemetry device was placed in the abdominal cavity of 6 rats per group. The pressure catheter of the device was inserted in the abdominal aorta and two electrodes tunnelised under the skin in a lead II position (left side of abdominal cavity/right shoulder). Individual rats were placed in their own cage on a radioreceptor (DSI) for data acquisition. The effect of 0.6 mg/kg 2 methoxyadenosine or vehicle (p.o.) on blood pressure was then assessed. The results are shown in FIG. 5: A: blood pressure; B: heart rate.

[5] = system: thermal hyperalgesia caused by chronic constriction injury of the rat sciatic nerve; test: Chronic constriction injury model of neuropathic pain; assay type: in vivo; settings: 0.624 mg/kg p.o., compared with carbamazepine 100 mg/kg s.c.
Excerpt: After approximately two weeks the rats developed thermal hyperalgesia in the operated leg as judged by the difference in paw withdrawal latencies of the right and left paws.

[6] = system: carrageenan (CGN) induced inflammation; test: Carrageenan induced inflammation (paw volume by plethysmometry); assay type: in vivo; settings: 62.4 and 624 μg/kg i.p.; compared with indomethacin 3 mg/kg po
Method: Carrageenan (2%, 10 microlitres) was administered into the right hind paw, and the paw volume assessed by plethysomometry. 2-methoxyadenosine was administered at the same time as carrageenan.

[7] = Plasma concentration after administration; settings: rat, in vivo
adenosine A2A receptor = settings: cited from earlier work
[8] = system: carageenan-induced inflammation; settings: rats, 20 mg/kg po; cited from earlier work
[9] = 20 mg/kg po; cited from earlier work
human A1 receptor = biological target: T4, human A1 receptor (Homo sapiens, UniProt P30542); test: Displacement of [3H]-DPCPX from the human A1 receptor; assay type: binding; settings: read-out: Ki high affinity sites
T4 sequence (P30542 1-326): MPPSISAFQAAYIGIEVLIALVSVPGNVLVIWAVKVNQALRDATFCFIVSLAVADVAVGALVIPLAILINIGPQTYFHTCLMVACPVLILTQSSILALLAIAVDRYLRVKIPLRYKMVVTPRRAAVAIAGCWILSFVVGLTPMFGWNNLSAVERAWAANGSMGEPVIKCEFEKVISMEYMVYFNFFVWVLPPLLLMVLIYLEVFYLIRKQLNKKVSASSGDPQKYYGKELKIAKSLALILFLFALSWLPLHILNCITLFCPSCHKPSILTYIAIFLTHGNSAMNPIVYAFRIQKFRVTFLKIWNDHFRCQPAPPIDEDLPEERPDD
Excerpt: Compounds that show a decrease in efficacy are likely to act as low efficacy partial agonists.

[10] = system: isolated perfused superior mesenteric arterial bed of the rat; settings: pH of the perfusate reduced to 6.8; cited from earlier work
[11] = pH 6.2, read-out: Ki High affinity
[12] = pH 6.2, read-out: Ki Low affinity
[13] = pH 7.4, read-out: Ki High affinity
[14] = pH 7.4, read-out: Ki Low affinity

With `CCOc1nc(N)c2ncn([C@@H]3O[C@H](CO)[C@@H](O)[C@H]3O)c2n1` [2-ethoxyadenosine] the “number of affinity states revealed” value [1] was “two apparent affinity states”, the “high affinity states as proportion of the total number of binding sites” value [1] was “approximately 25%” and the “effect of GTP on the high affinity states” value [1] was “abolished”. It also gave a Ki ([2]; Ki High affinity, pH 5.5) of 2.8 nM, a Ki ([2]; Ki High affinity, pH 7.4) of 245 nM and a Ki ([2]; Ki Low affinity, pH 5.5) of 1200 nM. The Ki ([2]; Ki Low affinity, pH 7.4) was 6600 nM.
`Nc1nc(Cl)nc2c1ncn2[C@@H]1O[C@H](CO)[C@@H](O)[C@H]1O` [2-chloroadenosine, reference compound] gave a Ki (rat cortex A1 receptor; [11]) of 3.7 nM, a Ki (rat cortex A1 receptor; [12]) of 1660 nM and a Ki (rat cortex A1 receptor; [13]) of 4.4 nM. It also gave a Ki (rat cortex A1 receptor; [14]) of 1670 nM.
With `COc1nc(N)c2ncn([C@@H]3O[C@H](CO)[C@@H](O)[C@H]3O)c2n1` [2-methoxyadenosine] the “efficacy at pH7.0 compared to pH7.4” value (human A2A receptor; cAMP accumulation in the presence of rolipram) was “Increased”, the “increase in efficacy at the adenosine A2A receptor” value (human A2A receptor; pH7.0 compared to pH7.4, FIG. 3) was “approximately 100 fold” and the “carrageenan induced thermal hyperalgesia” value [3] was “inhibits”. For the same molecule, the “effect on blood pressure” value [4] was “no Significant Effect”, the “effect on heart rate” value [4] was “no Significant Effect” and the “thermal hyperalgesia, chronic constriction injury” value [5] was “inhibits”. The “carrageenan induced inflammation (paw volume)” value [6] was “Inhibits”, the “plasma concentration with profound anti-hyperalgesic and anti-inflammatory activity” value [7] was no more than 0.2 µM and the “number of affinity states revealed” value [1] was “two apparent affinity states”. For the same molecule, the “high affinity states as proportion of the total number of binding sites” value [1] was “approximately 25%”, the “Ki High affinity” value ([1]; pH 7.4) was “High affinity not detectable” and the “change of affinity as the pH is reduced” value ([1]; pH from 7.4 to 7.0 to 6.8, FIG. 2) was “increases as the pH is reduced”. The “effect of GTP on the high affinity states” value [1] was “abolished”, the EC50 (adenosine A2A receptor; Daly et al. 1993, read-out: EC50 at the adenosine A2A receptor) was 3000 nM and the “EC50 at adenosine receptors” value (adenosine A2A receptor; measured at pH7.4) was 0.9 µg/mL (≈ 3.03 µM). For the same molecule, the EC50 (adenosine A2A receptor; measured at pH7.4, read-out: EC50 at adenosine receptors) was 3000 nM, the “inhibition of carageenan-induced inflammation” value [8] was 25% and the “reduction in heart rate” value [9] was 25%. The “reduction in mean blood pressure” value [9] was 41%, the Ki ([2]; Ki High affinity, pH 5.5) was 12.1 nM and the Ki ([2]; Ki Low affinity, pH 5.5) was 1200 nM. It also gave a Ki ([2]; Ki Low affinity, pH 7.4) of 2500 nM.
In the case of `COc1nc(N)c2ncn([C@@H]3O[C@H](CO)C[C@H]3O)c2n1` [3′-deoxy-2-methoxyadenosine], the Ki (human A1 receptor; pH 6.2) is reported as 405 ± 114 nM and the Ki (human A1 receptor; pH 7.4) is reported as 158 ± 85 nM.
In the case of `Nc1ncnc2c1ncn2[C@@H]1O[C@H](CO)[C@@H](O)[C@H]1O` [adenosine], the “enhancement of dilator responses” value [10] is listed as 10 fold.
For `Nc1nc(Cl)nc2c1ncn2[C@@H]1O[C@H](CO)C[C@H]1O` [3′-deoxy-2-chloroadenosine], the “effect of GppNHp on the high affinity state” value (rat cortex A1 receptor; both pH values (7.4 and 6.2)) was “abolished”, the Ki (rat cortex A1 receptor; [11]) was 17 nM and the Ki (rat cortex A1 receptor; [12]) was 13400 nM. The Ki (rat cortex A1 receptor; [13]) was 227 nM and the Ki (rat cortex A1 receptor; [14]) was 11500 nM.
In the case of `Nc1nc(Nc2ccccc2)nc2c1ncn2[C@@H]1O[C@H](CO)[C@@H](O)[C@H]1O` [CV1808, 2-phenylamino-adenosine, reference compound], the Ki ([2]; Ki, pH5.5, one affinity state) is reported as 35 ± 9 nM and the Ki ([2]; Ki, pH 7.4, one affinity state) is reported as 170 ± 20 nM.
